# According to publication PMC7986981 (ACS Pharmacology & Translational Science, 2021):
# Read-outs that look alike come from different tables or passages of the source. Where a SMILES comes first, the peptide text is derived from it. The star is where a group is joined. Cbz = O=C(OCc1ccccc1)*
# Columns and labels:
# SARS-CoV-2 3CL-Pro = SARS-CoV-2 3CL-Pro (Severe acute respiratory syndrome coronavirus 2, UniProt P0DTD1); experiment: biochemical; format: biochemical
# [1] = test system: SARS-CoV-2 CPE in Caco-2 cells; conditions: cited from earlier work
# [2] = oral drugs, no reference given; cited from earlier work
# SARS-CoV 3CL-Pro = conditions: cited from earlier work
# [3] = test system: SARS-CoV-2 cytopathic effect in Vero-E6 cells; format: cell-based
# chymotrypsin = format: biochemical; conditions: 1 mM DTT
# MERS 3CL-Pro = MERS 3CL-Pro (Middle East respiratory syndrome-related coronavirus, UniProt K9N7C7); format: biochemical; conditions: read-out: IC50 MERS 3CL-Pro
# Sequence of MERS 3CL-Pro (K9N7C7 3248-3553 limits assumed): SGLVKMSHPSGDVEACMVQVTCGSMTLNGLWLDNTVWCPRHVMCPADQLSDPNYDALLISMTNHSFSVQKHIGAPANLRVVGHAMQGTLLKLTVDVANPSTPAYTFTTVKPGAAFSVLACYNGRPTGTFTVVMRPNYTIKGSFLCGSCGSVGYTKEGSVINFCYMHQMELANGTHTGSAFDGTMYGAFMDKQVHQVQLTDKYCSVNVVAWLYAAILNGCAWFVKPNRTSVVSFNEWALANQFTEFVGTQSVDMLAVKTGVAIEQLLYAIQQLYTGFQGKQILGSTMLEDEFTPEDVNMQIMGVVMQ
# SARS-CoV-2 = format: cell-based; conditions: read-out: vRNA reduction / viral replication IC50 in Vero-E6 (qPCR)
# deubiquitinating enzymes = conditions: read-out: IC50 values against several deubiquitinating enzymes; cited from earlier work
# [4] = read-out: SARS-CoV-2 3CL-Pro IC50, without DTT, values given in nM
# [5] = 20 μM compound, result in words
# [6] = read-out: SARS-CoV-2 3CL-Pro IC50
# [7] = read-out: HP 3CL-Pro IC50, hit profiling, without DTT
molecule,measurement,setting,value
CC(=O)[O][Hg][c]1ccccc1 [phenylmercuric acetate],IC50,SARS-CoV-2 3CL-Pro; [4],10 nM
Nc1nc2c(ncn2[C@@H]2O[C@H](CO)[C@@H](O)[C@H]2O)c(=S)[nH]1 [Thioguanosine],anti-CPE activity against SARS-CoV-2 in Caco-2 cells (words),[1],anti-SARS-CoV-2 CPE effects
same,anti-CPE activity against SARS-CoV-2 in Caco-2 cells (words),[1]; listed as thioguanosine,active
[H]/N=C(\N/C(=N/[H])NCCCCCCNC(=N)NC(=N)Nc1ccc(Cl)cc1)Nc1ccc(Cl)cc1 [Chlorhexidine],effect of DTT (0 and 1 mM) on SARS-CoV-2 3CL-Pro inhibition,SARS-CoV-2 3CL-Pro; [5],not an effective inhibitor
O=c1c2ccccc2sn1-c1ccccc1 [PD08290],IC50,SARS-CoV-2 3CL-Pro; [6],20 nM
O=c1c2ccccc2[se]n1-c1ccccc1 [Ebselen],effect of DTT (0 and 1 mM) on SARS-CoV-2 3CL-Pro inhibition,SARS-CoV-2 3CL-Pro,loss of inhibitory capacity
CC(Cc1ccc(O)c(O)c1)C(C)Cc1ccc(O)c(O)c1 (stereo not drawn) [nordihydroguaiaretic acid],IC50,SARS-CoV-2 3CL-Pro; [7],2590 nM
Oc1cc2c(cc1O)[C@H]1c3ccccc3CN[C@@H]1CC2 (racemic) [Dihydrexidine],IC50,"SARS-CoV-2 3CL-Pro; HP 3CL-Pro IC50 (μM), hit profiling, without DTT",1100 nM
Cn1sc(=O)n(Cc2ccccc2)c1=O [TDZD-8],effect of DTT (0 and 1 mM) on SARS-CoV-2 3CL-Pro inhibition,SARS-CoV-2 3CL-Pro; [5],insensitive to DTT
Cc1ccc(C)c(-n2sc3cc(F)ccc3c2=O)c1 [MLS0315771],IC50,SARS-CoV-2 3CL-Pro; [6],20 nM
NC(CO)C(=O)NNCc1ccc(O)c(O)c1O (stereo not drawn) [Benserazide hdrochloride],measured acute toxicity in rodents,[2],higher than 5 mg/kg
O=c1c2cc(F)ccc2sn1-c1cc(S(=O)(=O)N2CCOCC2)ccc1N1CCOCC1 [ML345],IC50,SARS-CoV-2 3CL-Pro; [6],20 nM
CCN(CC)C(=S)SSC(=S)N(CC)CC [Disulfiram],effect of DTT (0 and 1 mM) on SARS-CoV-2 3CL-Pro inhibition,SARS-CoV-2 3CL-Pro; [5],loss of inhibitory capacity
CCOC(=O)/C=C/[C@H](C[C@@H]1CCNC1=O)NC(=O)[C@@H](CC(=O)[C@@H](NC(=O)c1cc(C)on1)C(C)C)Cc1ccc(F)cc1 [rupintrivir],activity against SARS-CoV 3CL-Pro,SARS-CoV 3CL-Pro,lacks activity
zinc pyrithione,effect of DTT (0 and 1 mM) on SARS-CoV-2 3CL-Pro inhibition,SARS-CoV-2 3CL-Pro,lost its inhibitory effects in the presence of DTT
same,"effect of preincubation time (15, 30, 60 min) on inhibition",SARS-CoV-2 3CL-Pro,increased with preincubation time
same,fold more potent after preincubation at 37 °C versus 25 °C,SARS-CoV-2 3CL-Pro,3 fold
same,IC50,SARS-CoV 3CL-Pro; read-out: SARS-CoV 3CL-Pro IC50,800 nM
CN1CCc2cccc3c2[C@H]1Cc1ccc(O)c(O)c1-3 [apomorphine],measured acute toxicity in rodents,[2],higher than 5 mg/kg
O=c1c(O)c(-c2cc(O)c(O)c(O)c2)oc2cc(O)cc(O)c12 [Myricetin],anti-CPE effect in Vero-E6 phenotypic assay,[3],not reflected in anti-CPE
"O=C(O[C@@H]1Cc2c(O)cc(O)cc2O[C@@H]1c1cc(O)c(O)c(O)c1)c1cc(O)c(O)c(O)c1 [epigallocatechin gallate, (-)-Epigallocatechin gallate]",effect of DTT (0 and 1 mM) on SARS-CoV-2 3CL-Pro inhibition,SARS-CoV-2 3CL-Pro; [5],did not show DTT dependence
COCCCOc1ccnc(C[S+]([O-])c2nc3ccccc3[nH]2)c1C (stereo not drawn) [rabeprazole],measured acute toxicity in rodents,[2],higher than 5 mg/kg
CCCC[C@@H](C=O)NC(=O)[C@H](CC(C)C)NC(=O)OCc1ccccc1 [calpeptin],effect of DTT (0 and 1 mM) on SARS-CoV-2 3CL-Pro inhibition,SARS-CoV-2 3CL-Pro; [5],retained its inhibitory effect independent of DTT
same,"effect of preincubation time (15, 30, 60 min) on inhibition","SARS-CoV-2 3CL-Pro; 25 °C, 20 μM, result in words",unchanged
Oc1cc(CNC(=S)/C=C/c2cc(O)c(O)c(Br)c2)cc(O)c1O [NT-157],IC50,SARS-CoV-2 3CL-Pro; read-out: SARS-CoV-2 3CL-Pro IC50 (unit inferred),500 nM
CC(C)(C)NC(=O)N[C@H](C(=O)N1C[C@H]2[C@@H]([C@H]1C(=O)NC(CC1CCC1)C(=O)C(N)=O)C2(C)C)C(C)(C)C (stereo partly drawn) [boceprevir],inhibition at 20 µM,"SARS-CoV-2 3CL-Pro; read-out: HC 3CL-Pro Inhibition [%] (20 μM), hit confirmation, triplicate, 20 μM compound",< 50%
CCCCCCNC(=O)n1cc(F)c(=O)[nH]c1=O [Carmofur],effect of DTT (0 and 1 mM) on SARS-CoV-2 3CL-Pro inhibition,SARS-CoV-2 3CL-Pro; [5],insensitive to DTT
same,Chymotrypsin Inhibition [%] +DTT (10 μM),chymotrypsin,14%
Cc1ccc(-n2sc3ccccc3c2=O)cc1 [PBIT],IC50,SARS-CoV-2 3CL-Pro; [6],20 nM
O=c1cc(-c2ccccc2)oc2cc(O)c(O)c(O)c12 [Baicalein],effect of DTT (0 and 1 mM) on SARS-CoV-2 3CL-Pro inhibition,SARS-CoV-2 3CL-Pro; [5],loss of inhibitory capacity
CCC(C)SSc1ncc[nH]1 (stereo not drawn) [PX-12],IC50,MERS 3CL-Pro,7600 nM
COC(=O)CC[C@H](NC(=O)[C@H](CC(=O)OC)NC(=O)OCc1ccccc1)C(=O)N[C@H](C(=O)N[C@@H](CC(=O)OC)C(=O)CF)C(C)C [Z-DEVD-FMK],fold higher potency than previously reported,SARS-CoV-2 3CL-Pro; own IC50 versus literature reports (Z-DEVD-FMK: ref 13),600 fold
same,IC50,SARS-CoV-2 3CL-Pro; [4],10 nM
same,anti-CPE effect in Vero-E6 phenotypic assay,[3],did not influence CPE
Oc1c(I)cc(I)c(O)c1I [riodoxol],measured acute toxicity in rodents,[2],higher than 5 mg/kg
O=c1sn(-c2cccc3ccccc23)c(=O)n1Cc1ccccc1 [Tideglusib],effect of DTT (0 and 1 mM) on SARS-CoV-2 3CL-Pro inhibition,SARS-CoV-2 3CL-Pro; [5],loss of inhibitory capacity
CC(C)C[C@@H](C=O)NC(=O)[C@H](CC(C)C)NC(=O)[C@H](CC(C)C)NC(=O)OCc1ccccc1 [MG-132] (Cbz-Leu-Leu-Leu-aldehyde),IC50,SARS-CoV-2,100 nM
same,anti-CPE activity against SARS-CoV-2 in Caco-2 cells (words),[1],active
N#CSc1cc(SC#N)c(N)nc1N [PR-619],IC50,SARS-CoV-2 3CL-Pro; [7],400 nM
same,IC50,MERS 3CL-Pro,2300 nM
same,IC50,deubiquitinating enzymes,2000 to 10000 nM
same,anti-CPE effect in Vero-E6 phenotypic assay,[3],inactive
same,anti-CPE activity against SARS-CoV-2 in Caco-2 cells (words),[1],inactive
CC[C@H](CO)Nc1nc(NCc2ccc(-c3ccccn3)cc2)c2ncn(C(C)C)c2n1 [CR8-(R)],IC50,SARS-CoV-2 3CL-Pro; read-out: HP 3CL-Pro IC50,800 nM
same,anti-CPE effect in Vero-E6 phenotypic assay,[3],no anti-CPE effect
